ChEMBL document CHEMBL1201862, “PubChem BioAssay data set” (2004)
Active and inactive are the calls of the source.

What was measured:
[1] = HEp-2 cell cytotoxicity, dose response, cytotoxicity control for RSV inhibitor project, HTS (AID 2410); format: functional; settings: human respiratory syncytial virus
[2] = Luminescence Cell-Based Dose Response HTS to Identify Activators of Luciferase Translation or Activity in H4 […] Cells. [Related pubchem assays: 1829 (Project Summary), 1814 (Primary HTS)]; format: functional
[3] = Luminescence Cell-Based Dose Confirmation HTS to Identify Activators of 5'UTR Stem-Loop Driven Alpha-Synuclein mRNA Translation in H4 Neuroglioblastoma Cells. [Related pubchem assays: 1829 (Project Summary), 1814 (Primary HTS)]; format: functional
H4 = assay: Luminescence Cell-Based Dose Response HTS to Identify Activators of 5'UTR Stem-Loop Driven Prion Protein mRNA Translation in H4 Neuroglioblastoma Cells. [Related pubchem assays: 1829 (Project Summary), 1814 (Primary HTS)]; format: functional; settings: Homo sapiens
[4] = target: T1, Rac GTPase-activating protein 1 (Homo sapiens, UniProt Q9H0H5); assay: MgcRacGAP GTPase-activating activity inhibitors, confirmation, biochemical, ADP Hunter fluorescence, primary and confirmatory (AID 624330); format: functional
T1 sequence (Q9H0H5 whole entry): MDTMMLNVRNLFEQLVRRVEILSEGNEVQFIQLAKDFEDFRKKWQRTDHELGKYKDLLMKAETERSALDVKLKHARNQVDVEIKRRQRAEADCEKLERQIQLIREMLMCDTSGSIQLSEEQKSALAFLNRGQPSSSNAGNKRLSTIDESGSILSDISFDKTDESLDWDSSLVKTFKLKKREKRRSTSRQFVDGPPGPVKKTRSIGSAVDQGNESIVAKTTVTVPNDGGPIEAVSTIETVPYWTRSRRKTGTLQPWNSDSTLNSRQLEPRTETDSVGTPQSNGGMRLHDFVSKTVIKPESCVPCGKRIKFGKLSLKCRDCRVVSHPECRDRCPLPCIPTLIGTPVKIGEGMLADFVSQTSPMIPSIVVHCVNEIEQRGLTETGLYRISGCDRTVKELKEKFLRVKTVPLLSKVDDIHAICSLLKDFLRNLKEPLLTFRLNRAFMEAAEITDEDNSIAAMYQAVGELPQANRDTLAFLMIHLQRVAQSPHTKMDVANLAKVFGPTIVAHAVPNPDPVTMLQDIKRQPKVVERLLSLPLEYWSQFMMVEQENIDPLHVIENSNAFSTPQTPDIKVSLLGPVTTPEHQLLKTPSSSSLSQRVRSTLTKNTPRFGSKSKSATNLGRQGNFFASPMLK

[5] = target: T2, Corticotropin-releasing factor receptor 2/Corticotropin-releasing factor-binding protein (Homo sapiens, UniProt P24387+Q13324); assay: activators of CRF receptor 2 with binding protein – uHTS hits, confirmation (AID 602473); format: functional; settings: read-out: EC50_Mean
T2 sequence (Q13324 whole entry): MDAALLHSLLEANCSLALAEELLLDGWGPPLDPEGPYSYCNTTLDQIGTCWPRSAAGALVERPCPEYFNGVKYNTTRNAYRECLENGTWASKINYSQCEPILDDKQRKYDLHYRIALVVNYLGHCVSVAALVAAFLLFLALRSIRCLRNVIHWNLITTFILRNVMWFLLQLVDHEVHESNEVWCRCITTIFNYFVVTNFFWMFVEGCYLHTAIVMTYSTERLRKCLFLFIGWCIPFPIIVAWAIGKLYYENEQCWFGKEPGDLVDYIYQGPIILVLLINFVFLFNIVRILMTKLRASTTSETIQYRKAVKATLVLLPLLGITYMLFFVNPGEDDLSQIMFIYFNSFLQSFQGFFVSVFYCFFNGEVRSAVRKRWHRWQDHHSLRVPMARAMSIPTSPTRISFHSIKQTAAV
T2 sequence (P24387 whole entry): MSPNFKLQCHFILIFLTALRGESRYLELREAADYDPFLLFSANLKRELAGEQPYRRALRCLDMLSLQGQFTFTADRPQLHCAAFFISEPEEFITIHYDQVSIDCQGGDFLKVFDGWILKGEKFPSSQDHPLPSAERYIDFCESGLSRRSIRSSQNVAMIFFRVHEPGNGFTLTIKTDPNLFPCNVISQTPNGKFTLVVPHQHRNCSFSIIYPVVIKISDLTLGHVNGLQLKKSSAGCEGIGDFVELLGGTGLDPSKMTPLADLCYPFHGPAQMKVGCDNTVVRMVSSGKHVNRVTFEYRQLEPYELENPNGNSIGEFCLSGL

INS1 = assay: beta cell apoptosis inhibitors, cytokine rescue, dose response, luminescence, retest (AID 449756); format: functional, cell-based; settings: Rattus norvegicus;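 note: cell death triggered by IL-1 beta plus TNF-alpha plus IFN-gamma mixture; protective hits raise ATP signal compared with cytokine alone wells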
Cytochrome P450 2C9 = Cytochrome P450 2C9 (Homo sapiens, UniProt P11712)
Cytochrome P450 2C19 = Cytochrome P450 2C19 (Homo sapiens, UniProt P33261); assay: Cytochrome panel assay with activity outcomes. Panel member name: p450-cyp2c19 Compounds with AC50 equal or less than 10 uM are considered active; format: functional; settings: read-out: AC50
Cytochrome P450 1A2 = target: T3, Cytochrome P450 1A2 (Homo sapiens, UniProt P05177);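 note: PubChem cytochrome P450 panel assay, CYP1A2 panel member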
T3 sequence (P05177 whole entry): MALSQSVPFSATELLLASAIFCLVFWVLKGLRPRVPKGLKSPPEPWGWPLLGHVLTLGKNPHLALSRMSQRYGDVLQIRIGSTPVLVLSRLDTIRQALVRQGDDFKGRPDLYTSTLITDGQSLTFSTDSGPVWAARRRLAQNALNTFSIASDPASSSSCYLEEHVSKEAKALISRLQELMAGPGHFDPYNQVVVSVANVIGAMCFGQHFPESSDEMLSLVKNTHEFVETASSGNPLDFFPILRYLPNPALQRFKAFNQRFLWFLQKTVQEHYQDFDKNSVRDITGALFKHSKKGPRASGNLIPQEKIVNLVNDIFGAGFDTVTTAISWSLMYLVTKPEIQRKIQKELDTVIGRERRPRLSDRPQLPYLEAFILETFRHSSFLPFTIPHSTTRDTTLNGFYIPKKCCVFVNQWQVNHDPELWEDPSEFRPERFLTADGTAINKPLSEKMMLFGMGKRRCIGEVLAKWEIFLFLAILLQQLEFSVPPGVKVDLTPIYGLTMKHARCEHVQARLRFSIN

[6] = inhibitors of firefly luciferase expression or activity, dose response, H4 neuroglioma cells, luminescence (AID 1990); format: functional, cell-based
[7] = Luminescence Cell-Based Dose Response HTS to Identify Inhibitors of 5'UTR Stem-Loop Driven Prion Protein mRNA Translation in H4 Neuroglioblastoma Cells. [Related pubchem assays: 1827 (Project Summary), 1813 (Primary HTS)]; format: functional
[8] = inhibitors of SNCA 5'UTR-driven reporter translation, confirmation, H4 neuroglioma cells, luminescence (AID 1988); format: functional, cell-based

Chain of Cytochrome P450 2C19 (P33261 whole entry): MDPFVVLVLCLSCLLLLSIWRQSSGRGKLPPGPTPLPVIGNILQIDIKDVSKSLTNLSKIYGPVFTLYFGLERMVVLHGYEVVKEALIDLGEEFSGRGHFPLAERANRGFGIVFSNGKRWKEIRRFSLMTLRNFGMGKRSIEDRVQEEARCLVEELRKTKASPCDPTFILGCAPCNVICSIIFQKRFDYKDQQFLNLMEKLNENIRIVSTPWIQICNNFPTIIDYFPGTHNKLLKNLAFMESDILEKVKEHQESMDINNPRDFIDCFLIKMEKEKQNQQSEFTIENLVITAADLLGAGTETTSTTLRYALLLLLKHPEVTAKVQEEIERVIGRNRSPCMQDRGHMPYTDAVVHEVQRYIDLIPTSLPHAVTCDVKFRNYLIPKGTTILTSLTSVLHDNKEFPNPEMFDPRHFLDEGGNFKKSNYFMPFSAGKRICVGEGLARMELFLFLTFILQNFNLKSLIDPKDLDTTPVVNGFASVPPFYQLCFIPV
Chain of Cytochrome P450 2C9 (P11712 whole entry): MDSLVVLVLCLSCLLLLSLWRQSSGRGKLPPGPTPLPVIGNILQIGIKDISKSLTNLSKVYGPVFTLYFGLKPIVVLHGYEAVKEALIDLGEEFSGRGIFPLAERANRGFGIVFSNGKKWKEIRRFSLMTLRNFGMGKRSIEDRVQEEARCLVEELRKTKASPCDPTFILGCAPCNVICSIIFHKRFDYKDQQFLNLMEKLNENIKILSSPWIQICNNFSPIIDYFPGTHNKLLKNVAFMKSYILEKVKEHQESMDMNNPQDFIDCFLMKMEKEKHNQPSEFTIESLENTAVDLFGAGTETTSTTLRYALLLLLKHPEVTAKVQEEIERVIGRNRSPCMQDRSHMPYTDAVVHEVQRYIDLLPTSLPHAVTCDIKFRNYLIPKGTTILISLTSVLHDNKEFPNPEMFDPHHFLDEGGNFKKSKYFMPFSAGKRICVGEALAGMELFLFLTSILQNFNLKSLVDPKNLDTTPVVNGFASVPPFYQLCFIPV

In the case of Cc1nc(N2CCN(S(=O)(=O)c3ccc(F)cc3)CC2)c2c(-c3cccs3)csc2n1, the CC50 [1] is reported as 16.8 µM (active).

In the case of CC1CC(c2ccccc2)=Nc2ccccc2N1 (stereo not drawn), the EC50 [2] is reported as 10.6 µM (active), the EC50 [3] is reported as 8.32 µM (active) and the EC50 (H4) is reported as 43 µM (active).

For COCC(C)NCc1ccc(OC)c(Br)c1 (stereo not drawn), the IC50 [4] was 167 µM (active).

In the case of COc1ccc(F)cc1C(=O)C1CCCN(C(=O)c2ccccc2N(C)C)C1 (stereo not drawn), the CC50 [1] is reported as 28.1 µM (active).

For Nc1c(C(=O)Nc2ccccc2Cl)nnn1-c1ccc2c(c1)OCCO2, the EC50 (H4) was > 120 µM (not active).

With CCOC(=O)c1ccc(NC(=S)N2CCSC2c2ccc(Cl)cc2)cc1 (stereo not drawn) the EC50 [5] was 4.71 µM (active) and the CC50 [1] was 16.9 µM (active).

For CCOc1ccc(S(=O)(=O)N2CCCCC2)cc1NC(=O)CN1CCCC1c1cccs1 (stereo not drawn), the AC50 (INS1) was 4.23 µM (active).

In the case of Cc1cc(C)c(OCCCCN(C)Cc2ccccc2)c(C)c1, the IC50 [4] is reported as 120 µM (active).

For CCOC(=O)C(NC(=O)CC)(Nc1sc2c(c1C(=O)OC)CCN(C)C2)C(F)(F)F (stereo not drawn), the AC50 (Cytochrome P450 2C9) was 15.8 µM (inconclusive), the AC50 (Cytochrome P450 2C19) was 2.51 µM (inconclusive) and the AC50 (Cytochrome P450 1A2) was 10 µM (inconclusive).

With CC/C(=N\CCc1c(C)[nH]c2ccccc12)C1=C(O)CC(c2ccccc2)CC1=O (stereo not drawn) the EC50 [6] was > 30 µM (not active), the EC50 [7] was 11.7 µM (active) and the EC50 [8] was > 120 µM (not active).

For C[C@H]1[C@@H](OC(=O)CCC(=O)O)O[C@@H]2OC3(C)CC[C@H]4[C@H](C)CC[C@@H]1[C@@]24OO3, the EC50 [6] was > 120 µM (not active), the EC50 [7] was > 120 µM (not active) and the EC50 [8] was > 120 µM (not active).

With O=c1c(-c2cccc(Cl)c2)c[nH]n1-c1ccccc1 the IC50 [4] was 59.6 µM (active).

For CCCCOc1ccc(CNC(=S)N/N=C/c2ccc(OC)c(OC)c2)cc1, the CC50 [1] was 41.2 µM (active).

In the case of COc1cc(/C=N/n2c(S)nnc2-c2cc(C)[nH]n2)cc(OC)c1O, the IC50 [4] is reported as 69.3 µM (active).

For COC(=O)c1sccc1N/N=C/c1ccc(OC)c(OC)c1OC, the EC50 [2] was 9.96 µM (active), the EC50 [3] was 87.4 µM (active) and the EC50 (H4) was 40.6 µM (active).

With COc1ccc(/C=N/N2CCN(C)CC2)cc1O the IC50 [4] was 39.2 µM (active).

With CCN(CC)c1ccc(/C=N/N(c2ccccc2)c2ccccc2)c(O)c1 the AC50 (INS1) was 5.2 µM (active).
